A word on the IC50: it is the concentration at which inhibition is half-maximal. What is called GI50 is the concentration that inhibits growth by half.

Test [1] in a line: Inhibition of mouse B-Raf V600E mutant assessed as as reduction in human N-terminal His-tagged MEK1 phosphorylation pre-incubated with compound for 1 hr.
The species named for a further test is Homo sapiens. Nature of the test: Selectivity index, ratio of IC50 for COX1 (unknown origin) to IC50 for COX2 (unknown origin).
Test [2] is described as follows: Antiproliferative activity against human WM266.4 cells after 24 hrs by MTT assay. It counts as functional. Conditions: WM 266-4, 24 h.
The subject of another test is HeLa. Nature of the test: Antiproliferative activity against human HeLa cells after 24 hrs by MTT assay. It counts as functional. A general note: Tetrazolium dyes change colour on reduction, which living cells bring about.
The target in test [3] is Prostaglandin G/H synthase 1 (Homo sapiens, UniProt P23219). Nature of the test: Inhibition of COX1 (unknown origin) by solid phase ELISA method. Background: An ELISA detects its analyte on a solid surface through an enzyme-linked reagent.
Test [4] concerns the target T1, Prostaglandin G/H synthase 2 (Homo sapiens, UniProt P35354).
T1 sequence (P35354 whole entry): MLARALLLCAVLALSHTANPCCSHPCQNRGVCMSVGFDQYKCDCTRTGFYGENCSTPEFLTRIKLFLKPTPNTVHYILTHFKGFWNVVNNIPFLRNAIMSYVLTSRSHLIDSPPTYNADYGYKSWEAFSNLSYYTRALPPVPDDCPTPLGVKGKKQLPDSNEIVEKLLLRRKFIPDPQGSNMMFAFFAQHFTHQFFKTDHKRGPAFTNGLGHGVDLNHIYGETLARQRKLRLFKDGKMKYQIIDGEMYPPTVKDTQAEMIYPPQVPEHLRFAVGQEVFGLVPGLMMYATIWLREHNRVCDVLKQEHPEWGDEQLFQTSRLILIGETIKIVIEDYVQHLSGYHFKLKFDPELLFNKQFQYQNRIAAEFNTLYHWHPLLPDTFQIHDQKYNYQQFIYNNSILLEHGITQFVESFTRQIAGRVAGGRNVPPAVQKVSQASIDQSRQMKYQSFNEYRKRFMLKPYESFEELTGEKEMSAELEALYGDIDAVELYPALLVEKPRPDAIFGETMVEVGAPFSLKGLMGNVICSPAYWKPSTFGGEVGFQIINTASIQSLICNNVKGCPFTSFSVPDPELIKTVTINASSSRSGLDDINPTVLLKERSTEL
Nature of the test: Inhibition of COX2 (unknown origin) by solid phase ELISA method.

Chain of Prostaglandin G/H synthase 1 (P23219 whole entry): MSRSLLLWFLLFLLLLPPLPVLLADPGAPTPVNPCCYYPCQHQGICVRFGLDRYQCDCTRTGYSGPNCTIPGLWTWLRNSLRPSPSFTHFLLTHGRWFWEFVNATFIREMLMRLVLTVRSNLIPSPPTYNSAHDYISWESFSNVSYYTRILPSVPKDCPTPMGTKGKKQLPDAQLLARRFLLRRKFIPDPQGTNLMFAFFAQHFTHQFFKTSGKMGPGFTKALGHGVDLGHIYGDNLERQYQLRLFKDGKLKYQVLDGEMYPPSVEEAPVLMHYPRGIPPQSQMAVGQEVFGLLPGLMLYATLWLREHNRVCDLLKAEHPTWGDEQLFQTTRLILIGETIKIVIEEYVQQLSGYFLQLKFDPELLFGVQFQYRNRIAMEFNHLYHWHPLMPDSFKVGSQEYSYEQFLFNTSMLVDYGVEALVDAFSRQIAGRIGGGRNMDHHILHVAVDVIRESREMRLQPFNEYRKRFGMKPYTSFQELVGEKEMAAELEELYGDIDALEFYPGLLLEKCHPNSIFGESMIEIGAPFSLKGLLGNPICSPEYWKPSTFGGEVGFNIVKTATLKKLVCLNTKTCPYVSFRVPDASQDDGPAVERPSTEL

`O=S(=O)(c1ccccc1)N1N=C(C(F)(F)F)CC1c1ccc2c(c1)OCO2` (stereo not given): the IC50 in test [1] came out at 2.41 µM; in test [3], 14.1 µM. In addition, the Ratio IC50 in the test listed under Homo sapiens came to 2.5. Besides, the GI50 came out at 1.63 µM in test [2] and 34.6 µM in the test with HeLa.

For `NS(=O)(=O)c1ccc(N2N=C(C(F)(F)F)CC2c2ccc3ccccc3c2)cc1` (stereo not given), the half-maximal inhibitory concentration (IC50) in test [1] stood at 1.15 µM; in test [3], 19 µM. For the same molecule, in the test listed under Homo sapiens, the Ratio IC50 is 1.3. The GI50 is 1.09 µM in test [2] and 49.8 µM in the test with HeLa.

For the molecule `O=S(=O)(c1ccccc1)N1N=C(C(F)(F)F)CC1c1cccc2c1OCO2` (stereo not given), the IC50 in test [1] stood at 9.46 µM; in test [3] it was 8.75 µM. Moreover, the Ratio IC50 in the test filed under Homo sapiens was determined as 0.14. Besides, the GI50 is 13.6 µM in test [2] and above 500 µM in the test with HeLa.

Regarding `O=c1[nH]cc(F)c(=O)[nH]1` [FLUOROURACIL], the GI50 in test [2] stood at 28.8 µM; in the test with HeLa it was 30.2 µM.

On to `CCCS(=O)(=O)Nc1ccc(F)c(C(=O)c2c[nH]c3ncc(-c4ccc(Cl)cc4)cc23)c1F` [VEMURAFENIB], for which, in test [1], the IC50 worked out at 0.06 µM.

Regarding `CS(=O)(=O)c1ccc(N2N=C(C(F)(F)F)CC2c2cccc3c2OCCO3)cc1` (stereo not given), the IC50 in test [1] was 0.12 µM; in test [3] it was 40.6 µM. Moreover, the GI50 in test [2] is 0.76 µM; in the test with HeLa, 26 µM.

With `O=S(=O)(c1ccccc1)N1N=C(C(F)(F)F)CC1c1cccc2c1OCCO2` (stereo not given), the values for the half-inhibitory concentration (IC50) in test [1] and in test [3] were 5.24 µM and 100 µM, respectively. The Ratio IC50 in the test filed under Homo sapiens came out at 3.7. For the same molecule, the 50% growth inhibitory concentration (GI50) in test [2] was 3.87 µM; in the test with HeLa, 127 µM.

`Cc1ccc(S(=O)(=O)N2N=C(C(F)(F)F)CC2c2cccc3c2OCO3)cc1` (stereo not given): the 50% inhibitory concentration (IC50) turned out to be 1.11 µM in test [1] and 10.4 µM in test [3]. Further, the GI50 in test [2] was 1.08 µM; in the test on HeLa it was above 500 µM.

As to `Cc1ccc(S(=O)(=O)N2N=C(C(F)(F)F)CC2c2cccc3c2OCCO3)cc1` (stereo not given), the IC50 in test [1] is 1.74 µM; in test [4], above 500 µM; in test [3], 15.4 µM. Further, the Ratio IC50 in the test filed under Homo sapiens is 0.01. In addition, the GI50 in test [2] was 1.34 µM; in the test on HeLa, above 500 µM.

As for `O=S(=O)(c1ccccc1)N1N=C(C(F)(F)F)CC1c1ccc2c(c1)OCCO2` (stereo not given), the IC50 was above 100 µM in test [1] and 106 µM in test [3]. Also, the Ratio IC50 in the test listed under Homo sapiens is 54. The 50% growth inhibitory concentration (GI50) in test [2] was above 500 µM; in the test with HeLa it was 58.9 µM.

As to `NS(=O)(=O)c1ccc(N2N=C(C(F)(F)F)CC2c2ccc3c(c2)OCCO3)cc1` (stereo not given), the IC50 came out at 17 µM in test [1] and 41.5 µM in test [3]. Also, in the test listed under Homo sapiens, the Ratio IC50 was above 500. Also, the values for the GI50 (in test [2]; in the test on HeLa) were 132 µM and 19.9 µM, respectively.

With `O=S(=O)(c1ccccc1)N1N=C(C(F)(F)F)CC1c1cccc2ccccc12` (stereo not given), the IC50 in test [1] amounted to 1.24 µM; in test [3], 17.6 µM. Moreover, the Ratio IC50 in the test filed under Homo sapiens was 0.26. The concentration for 50% growth inhibition (GI50) in test [2] is 1.18 µM; in the test on HeLa, above 500 µM.

For `CS(=O)(=O)c1ccc(N2N=C(C(F)(F)F)CC2c2cccc3c2OCO3)cc1` (stereo not given), the half-maximal inhibitory concentration (IC50) in test [1] amounted to 9.86 µM; in test [3], 10.8 µM. Further, in the test filed under Homo sapiens, the Ratio IC50 came out at 269. The values for the concentration for 50% growth inhibition (GI50) (in test [2]; in the test with HeLa) were 16.8 µM and 38.6 µM, respectively.

In the case of `Cc1ccc(S(=O)(=O)N2N=C(C(F)(F)F)CC2c2ccc3c(c2)OCO3)cc1` (stereo not given), the IC50 is 2.26 µM in test [1] and 3.72 µM in test [3]. Further, the Ratio IC50 in the test filed under Homo sapiens was 7. Moreover, the GI50 in test [2] was 1.63 µM; in the test on HeLa, 28.7 µM.

Consider `Cc1ccc(S(=O)(=O)N2N=C(C(F)(F)F)CC2c2ccc3c(c2)OCCO3)cc1` (stereo not given), for which the IC50 was 0.25 µM in test [1] and 4.63 µM in test [3]. For the same molecule, the Ratio IC50 in the test listed under Homo sapiens was 3.5. Moreover, the GI50 in test [2] is 0.83 µM; in the test on HeLa, 24.8 µM.

For the molecule `NS(=O)(=O)c1ccc(N2N=C(C(F)(F)F)CC2c2ccc3c(c2)OCO3)cc1` (stereo not given), the IC50 in test [1] amounted to 3.84 µM; in test [3] it was 19 µM. Moreover, the Ratio IC50 in the test listed under Homo sapiens was above 500. For the same molecule, in test [2], the GI50 was found to be 2.47 µM.

Take `Cc1ccc(S(=O)(=O)N2N=C(C(F)(F)F)CC2c2cccc3ccccc23)cc1` (stereo not given): the IC50 in test [1] amounted to 1.01 µM; in test [3] it was 153 µM. The Ratio IC50 in the test listed under Homo sapiens amounted to 1.7. The GI50 is 1.06 µM in test [2] and above 500 µM in the test on HeLa.

With `CS(=O)(=O)c1ccc(N2N=C(C(F)(F)F)CC2c2cccc3ccccc23)cc1` (stereo not given), the IC50 in test [1] was determined as 8.53 µM; in test [3] it was 15.2 µM. For the same molecule, the 50% growth inhibitory concentration (GI50) stood at 10.6 µM in test [2] and 33.3 µM in the test with HeLa.

As for `CS(=O)(=O)c1ccc(N2N=C(C(F)(F)F)CC2c2ccc3ccccc3c2)cc1` (stereo not given), the values for the IC50 in test [1] and in test [3] were 0.67 µM and 38.7 µM, respectively. Also, the Ratio IC50 in the test listed under Homo sapiens was 2.2. The GI50 in test [2] worked out at 0.97 µM; in the test with HeLa, 63.6 µM.

On to `NS(=O)(=O)c1ccc(N2N=C(C(F)(F)F)CC2c2cccc3ccccc23)cc1` (stereo not given), for which the IC50 is 8.23 µM in test [1] and 17 µM in test [3]. Besides, the GI50 in test [2] was 8.91 µM; with HeLa, 29.5 µM.

On to `CS(=O)(=O)c1ccc(N2N=C(C(F)(F)F)CC2c2ccc3c(c2)OCCO3)cc1` (stereo not given), for which the values for the IC50 in test [1] and in test [3] were 0.89 µM and 64.9 µM, respectively. In addition, the Ratio IC50 in the test listed under Homo sapiens was determined as 270. In addition, the GI50 in test [2] worked out at 1.12 µM; in the test on HeLa it was 23.5 µM.

Consider `Cc1ccc(S(=O)(=O)N2N=C(C(F)(F)F)CC2c2ccc3ccccc3c2)cc1` (stereo not given), for which the figures for the IC50 in test [1] and in test [3] were 0.85 µM and above 500 µM, respectively. The Ratio IC50 in the test filed under Homo sapiens is 10.7. In addition, the results for the GI50 (in test [2]; in the test with HeLa) were 1.01 µM and above 500 µM, respectively.

For `O=S(=O)(c1ccccc1)N1N=C(C(F)(F)F)CC1c1ccc2ccccc2c1` (stereo not given), the IC50 in test [1] was above 100 µM; in test [4], 174 µM; in test [3], 7.23 µM. Also, in the test listed under Homo sapiens, the Ratio IC50 came to 0.04. For the same molecule, the GI50 (in test [2]; in the test with HeLa) was above 500 µM in each case.

As for `NS(=O)(=O)c1ccc(N2N=C(C(F)(F)F)CC2c2cccc3c2OCCO3)cc1` (stereo not given), the results for the IC50 in test [1] and in test [3] were 0.15 µM and 34.5 µM, respectively. In the test filed under Homo sapiens, the Ratio IC50 is above 500. The GI50 stood at 0.82 µM in test [2] and 26 µM in the test on HeLa.

With `CS(=O)(=O)c1ccc(N2N=C(C(F)(F)F)CC2c2ccc3c(c2)OCO3)cc1` (stereo not given), the IC50 in test [1] was determined as 0.49 µM; in test [3] it was 57.5 µM. Besides, the Ratio IC50 in the test listed under Homo sapiens worked out at 411. Moreover, the GI50 in test [2] came to 0.89 µM; with HeLa, 27.6 µM.

`NS(=O)(=O)c1ccc(N2N=C(C(F)(F)F)CC2c2cccc3c2OCO3)cc1` (stereo not given): the IC50 in test [1] is 1.77 µM; in test [3], 10 µM. For the same molecule, in the test filed under Homo sapiens, the Ratio IC50 is 197. Further, the GI50 in test [2] was 1.32 µM; in the test on HeLa, 26.2 µM.

The record behind these values is ChEMBL document CHEMBL3352811, “Novel pyrazoline derivatives as bi-inhibitor of COX-2 and B-Raf in treating cervical carcinoma” (Bioorg Med Chem, 2014).
